Patent US20240182465A1 (GENFLEET THERAPEUTICS (SHANGHAI) INC., priority 2021, published 2024)

Assays:
HPK1 [1] = target: HPK1 (Homo sapiens, UniProt Q92918); assay: SLP76 phosphorylation assay (intracellular HPK1 inhibitory activity, p-SLP76 Ser376 sandwich ELISA); conditions: p-SLP76 IC50(nM), Jurkat, Clone E6-1 cells; 1 h compound pre-incubation, anti-CD3 beads stimulation 20 min; SLP76 phosphorylation at S376
Target sequence in this assay (Q92918 whole entry): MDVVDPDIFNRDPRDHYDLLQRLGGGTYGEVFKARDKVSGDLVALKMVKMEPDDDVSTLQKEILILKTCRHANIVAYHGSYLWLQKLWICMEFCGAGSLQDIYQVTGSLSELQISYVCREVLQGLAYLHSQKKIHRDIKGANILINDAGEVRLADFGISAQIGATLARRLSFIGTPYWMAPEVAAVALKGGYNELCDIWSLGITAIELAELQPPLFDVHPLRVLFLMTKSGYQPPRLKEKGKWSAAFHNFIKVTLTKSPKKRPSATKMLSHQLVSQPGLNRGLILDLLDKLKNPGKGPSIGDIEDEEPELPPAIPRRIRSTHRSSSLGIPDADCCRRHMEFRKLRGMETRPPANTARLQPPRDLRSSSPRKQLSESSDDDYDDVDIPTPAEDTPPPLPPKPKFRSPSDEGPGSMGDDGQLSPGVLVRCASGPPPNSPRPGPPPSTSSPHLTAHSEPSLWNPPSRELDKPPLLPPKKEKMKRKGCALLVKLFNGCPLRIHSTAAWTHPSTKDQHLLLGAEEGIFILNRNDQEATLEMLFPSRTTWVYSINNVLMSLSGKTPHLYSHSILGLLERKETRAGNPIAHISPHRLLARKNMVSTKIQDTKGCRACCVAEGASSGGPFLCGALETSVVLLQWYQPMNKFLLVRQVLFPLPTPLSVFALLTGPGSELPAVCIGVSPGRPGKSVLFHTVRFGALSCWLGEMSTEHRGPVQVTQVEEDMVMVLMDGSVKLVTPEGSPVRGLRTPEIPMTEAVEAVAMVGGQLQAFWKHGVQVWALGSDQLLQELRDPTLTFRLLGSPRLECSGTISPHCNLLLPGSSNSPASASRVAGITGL
Method: Intracellular HPK1 inhibitory activity was tested by the detection of SLP76 phosphorylation at S376.
(§1) Preparation of 1000× drug stock plate: a 1000× compound stock plate was prepared. […] The compound stock plate was sealed with a sealing film and stored in a −20° C. refrigerator for later use.
Preparation of Beads wash buffer: 0.1 mL FBS and 0.4 mL 0.5 M EDTA (with a final concentration of 2 mM) were added to 100 mL PBS and stored in a 4° C. refrigerator for later use.
100× Protease Inhibitor Cocktail in 1/20 total volume was added and stored on wet ice for later use. The buffer was ready to use.
Cell inoculation and dosing: the 1000× drug stock plate was taken and melted at room temperature in the dark. […] Jurkat cells in the logarithmic growth phase were selected and collected. […] The cells were inoculated into a 96-well plate (the volume was 90 μL per well), and a blank control well (without cells inoculation, and in which 110 μL of medium was added) was set. 10 μL of a drug-containing culture medium (10×) was transferred from the 10× drug intermediate plate into the 96-well cell plate (with a final concentration of 0.1% DMSO), and set a DMSO control group (in which 0.1% DMSO was added to the treated cells), a stimulated control group (in which 10 μL of culture medium was added to treat cells) and an unstimulated group (in which 10 μL of culture medium was added to treat cells). The wells were duplicated, gently patted, mixed, and then placed into a 5% CO2 incubator at 37° C. for 1 h.
Anti-CD3 beads stimulation: Dynabeads anti-human CD3 was taken, shaken, and mixed for 60 s. The required volume of beads was pipetted, and an equal volume or at least 1 mL of washing solution was added to wash once. Fresh complete medium was then added to resuspend and adjust the density of the beads to 4×10^7/mL, and the beads were placed on ice for later use. At the end of drug pre-incubation, the cell culture plate was taken out. 10 μL Dynabeads anti-human CD3 was added to each well to treat the cells, and 10 μL the culture medium was added to the unstimulated group. The cell culture plate was shaken to mix well at 2500 rpm for 10 s, and then placed into a 5% CO2 incubator at 37° C. and continued to culture for 20 min.
Detection of p-SLP76 protein level. PathScan Phospho-SLP-76 (Ser376) Sandwich ELISA Kit was applied to detect p-SLP76 protein level. At the end of the Anti-CD3 beads stimulation, the cell culture plate was removed from the incubator. […] After lysis, the cell culture plate was centrifuged at 4° C., 400×g for 5 min. 25 μL of sample and 75 μL of sample diluent were added to each well, and the plate was placed in a 5% CO2 incubator at 37° C. for 2 h. The subsequent detection steps were carried out following the kit instructions, and the absorbance (OD value) of each well was read at 450 nm by a microplate reader.

HPK1 [2] = target: T1, HPK1 (Homo sapiens, UniProt Q92918); assay: HPK1 kinase activity assay (ADP-Glo); conditions: HPK1 Kinase activity IC50 (nM), 1 nM HPK1, 10 μM ATP, 0.1 μg/μL MBP
T1 sequence (Q92918 1-346 limits assumed): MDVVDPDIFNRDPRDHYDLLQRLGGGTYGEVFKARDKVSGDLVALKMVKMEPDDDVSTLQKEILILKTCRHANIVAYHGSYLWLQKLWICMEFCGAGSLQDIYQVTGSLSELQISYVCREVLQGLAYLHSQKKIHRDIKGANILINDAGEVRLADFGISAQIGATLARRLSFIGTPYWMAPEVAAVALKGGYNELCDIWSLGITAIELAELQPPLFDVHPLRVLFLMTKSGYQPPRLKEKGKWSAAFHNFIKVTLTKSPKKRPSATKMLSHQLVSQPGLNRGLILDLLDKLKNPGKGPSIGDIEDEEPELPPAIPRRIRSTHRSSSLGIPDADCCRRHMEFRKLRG
Method: Preparation of buffer: 1× reaction buffer (40 mM Tris-HCl, 20 mM MgCl2, 0.01% Brij35, 50 μM DTT, 0.1 mg/ml BSA) was prepared using sterile water, which was prepared and used on the day of the experiment.
as §1
Compound preparation and dosing: the 1000× drug stock plate was taken and melted at room temperature in the dark. Then 5× drug intermediate plate was prepared using reaction buffer and mixed well. 2 μL was transferred from the 5× drug intermediate plate into a 384-well plate, and negative control well and positive control well (in which 2 μL reaction buffer containing 0.5% DMSO was added) were set. Each point was repeated twice.
Preparation and incubation of reaction mixture: HPK1 protein was diluted to a 2.5× working solution with reaction buffer. 4 μL 2.5×HPK1 protein was added to each well containing test compound and positive control well, and 4 μL of reaction buffer without HPK1 protein was added to the negative control well. The obtained mixture was centrifuged at 1000 rpm for 1 min and then incubated in a 20° C. incubator for 15 min. A 2.5× mixed working solution of MBP protein and ATP was prepared with reaction buffer at concentrations of 0.5 μg/μL and 50 PM, respectively. 4 μL of the mixed working solution of MBP and ATP was added to each well, centrifuged at 1000 rpm for 1 min, and then incubated in a 20° C. incubator for 90 min.
ADP-Glo detection and reading plate: 10 μl ADP-Glo was added to each well of the test plate. The resulting mixture was centrifuged at 1000 rpm for 1 min and incubated in a 20° C. incubator for 60 min. Then 10 μL of the final incubation solution was transferred from the test plate to a new 384-well plate. 10 μL of kinase detection reagent was added to each well, centrifuged at 400 g for 1 min, and incubated in a 20° C. incubator for 60 min. Chemiluminescent signals were read by a microplate reader.

| Structure (SMILES) | IC50 (HPK1 [1]) [nM] | IC50 (HPK1 [2]) [nM] |
| --- | --- | --- |
| COCC(=O)N1CCc2cc(-c3cnc4[nH]cc(C(C)C)c4c3)cc([C@@H]3COCCN3)c2C1 [Compound Z424-1] | 129 | 0.31 |
| Cc1c[nH]c2ncc(-c3cc4c(c([C@@H]5CCCN5)c3)CN(C(=O)N3CCO[C@H](C)C3)CC4)cc12 [Compound Z359-2, (6-(3-methyl-1H-pyrrolo[2,3-b]pyridin-5-yl)-8-((S)-pyrrolidin-2-yl)-3,4-dihydroisoquinolin-2(1H)-yl) ((R)-2-methylmorpholin)methanone] | 98.1 | 0.36 |
| CN(C)C(=O)c1ccc(-c2c[nH]c3ncc(-c4cc5c(c([C@@H]6CCCN6)c4)COCC5)cc23)cn1 [Compound Z54-1, (S)—N,N-dimethyl-5-(5-(8-(pyrrolidin-2-yl)isochroman-6-yl)-1H-pyrrolo[2,3-b]pyridin-3-yl)pyridine carboxamide] | 401 | 0.6 |
| CCNC(=O)N1CCc2cc(-c3cnc4[nH]cc(C(C)C)c4c3)cc([C@@H]3COCCN3)c2C1 [Compound Z429] | 159 | 0.41 |
| C[C@@H](C#N)c1c[nH]c2ncc(-c3cc4c(c([C@@H]5CCCN5)c3)COCC4)cc12 (single isomer, unassigned) [Compound Z104-2] | 197 | 0.74 |
| Cc1c[nH]c2ncc(-c3cc4c(c([C@@H]5CCCN5)c3)CN(C(=O)[C@@H]3CCOC3)CC4)cc12 [Compound Z219-1, (S)-(6-(3-methyl-1H-pyrrolo[2,3-b]pyridin-5-yl)-8-(pyrrolidin-2-yl)-3,4-dihydroisoquinolin-2(1H)-yl) ((R)-tetrahydrofuran-3-yl)methanone] | 174 | 0.42 |
| CC(C)c1c[nH]c2ncc(-c3cc([C@@H]4CCCN4)c4cnccc4c3)cc12 (single isomer, unassigned) [Compound Z95-2] | 623 | 1.45 |
| Cc1ncc(N2CCc3c(cc(-c4cnc5[nH]cc(C)c5c4)cc3[C@@H]3CCCN3)C2)s1 [Compound Z38-1, (S)-7-(3-methyl-1H-pyrrolo[2,3-b]pyridin-5-yl)-2-(2-methylthiazol-5-yl)-5-(pyrrolidin-2-yl)-1,2,3,4-tetrahydroisoquinoline] | 719 | 2.97 |
| CO[C@H]1CCN(C(=O)N2CCc3cc(-c4cnc5[nH]cc(C)c5c4)cc([C@@H]4CCCN4)c3C2)C1 [Compound Z357-1] | 99.3 | 0.31 |
| Cc1c[nH]c2ncc(-c3cc4c(c([C@@H]5CCCN5)c3)CN(C(=O)N3CCO[C@@H](C)C3)CC4)cc12 [Compound Z359-1, (6-(3-methyl-1H-pyrrolo[2,3-b]pyridin-5-yl)-8-((S)-pyrrolidin-2-yl)-3,4-dihydroisoquinolin-2(1H)-yl) ((S)-2-methylmorpholin)methanone] | 135 | 0.27 |
| Cc1c[nH]c2ncc(-c3cc4c(c([C@@H]5CCCN5)c3)CN(C(=O)Nc3nccs3)C4)cc12 [Compound Z386, (S)-6-(3-methyl-1H-pyrrolo[2,3-b]pyridin-5-yl)-4-(pyrrolidin-2-yl)-N-(thiazol-2-yl)isoindoline-2-carboxamide] | 632 | 2.74 |
| Cc1c[nH]c2ncc(-c3cc4c(c([C@@H]5CCCN5)c3)CN(C(=O)[C@H]3CCOC3)CC4)cc12 [Compound Z219-2, (S)-(6-(3-methyl-1H-pyrrolo[2,3-b]pyridin-5-yl)-8-(pyrrolidin-2-yl)-3,4-dihydroisoquinolin-2(1H)-yl) ((S)-tetrahydrofuran-3-yl)methanone] | 122 | 0.35 |
| Nc1ncc(-c2cc3c(c([C@@H]4CCCN4)c2)COCC3)cc1-c1cn[nH]c1 (single isomer, unassigned) [Compound Z93-2] | 235 | 0.71 |
| Cc1c[nH]c2ncc(-c3cc4c(c([C@@H]5CCCN5)c3)CCN(C(=O)C(C)(C)C)C4)cc12 [Compound Z300, (S)-2,2-dimethyl-1-(7-(3-methyl-1H-pyrrolo[2,3-b]pyridin-5-yl)-5-(pyrrolidin-2-yl)-3,4-dihydroisoquinolin-2(1H)-yl)propan-1-one] | 274 | 0.64 |
| Cc1c[nH]c2ncc(-c3cc([C@H]4CCCN4)c4cnccc4c3)cc12 (single isomer, unassigned) [Compound Z3-2] | 604 | 3.37 |

Second part, the molecule after the results:

| IC50 (HPK1 [1]) [nM] | IC50 (HPK1 [2]) [nM] | Structure (SMILES) |
| --- | --- | --- |
| 119 | 0.45 | COC1(C(=O)N2CCc3cc(-c4cnc5[nH]cc(C)c5c4)cc([C@@H]4CCCN4)c3C2)CC1 [Compound Z245, (S)-(1-methoxycyclopropyl)(6-(3-methyl-1H-pyrrolo[2,3-b]pyridin-5-yl)-8-(pyrrolidin-2-yl)-3,4-dihydroisoquinolin-2(1H)-yl)methanone] |
| 7910 | 31.2 | Cc1c[nH]c2ncc(-c3cc([C@@H]4CCCN4)c4ccccc4n3)cc12 [Compound Z136, (S)-2-(3-methyl-1H-pyrrolo[2,3-b]pyridin-5-yl)-4-(pyrrolidin-2-yl)quinoline] |
| 225 | 0.29 | Cc1c[nH]c2ncc(-c3cc4c(c([C@@H]5CCCN5)c3)CN(c3ccncn3)CC4)cc12 [Compound Z315, (S)-6-(3-methyl-1H-pyrrolo[2,3-b]pyridin-5-yl)-2-(pyrimidin-4-yl)-8-(pyrrolidin-2-yl)-1,2,3,4-tetrahydroisoquinoline] |
| 181 | 1.04 | Cc1cc(C(=O)N2CCc3cc(-c4cnc5[nH]cc(C)c5c4)cc([C@@H]4CCCN4)c3C2)cc(C)n1 [Compound Z214, (S)-(6-(3-methyl-1H-pyrrolo[2,3-b]pyridin-5-yl)-8-(pyrrolidin-2-yl)-3,4-dihydroisoquinolin-2(1H)-yl) (2,6-dimethylpyridin-4-yl)methanone] |
| 668 | 3.3 | CNCc1cc(-c2cnc3[nH]cc(C)c3c2)cc2c1COCC2 [Compound Z298, N-methyl-1-(6-(3-methyl-1H-pyrrolo[2,3-b]pyridin-5-yl)isochroman-8-yl)methanamine] |
| 90.7 | 0.33 | Cc1ncc(C(=O)N2CCc3cc(-c4cnc5[nH]cc(C)c5c4)cc([C@@H]4CCCN4)c3C2)cn1 [Compound Z328, (S)-[6-(3-methyl-1H-pyrrolo[2,3-b]pyridin-5-yl)-8-[pyrrolidin-2-yl]-3,4-dihydroisoquinolin-2(1H)-yl](2-methylpyrimidin-5-yl)methanone] |
| 163 | 0.49 | N#CCc1c[nH]c2ncc(-c3cc4c(c(C5CCCN5)c3)COCC4)cc12 (centres unmarked) [Compound Z101, 2-(5-(8-(pyrrolidin-2-yl)isochroman-6-yl)-1H-pyrrolo[2,3-b]pyridin-3-yl)acetonitrile] |
| 1080 | 3.11 | CC(C)c1c[nH]c2ncc(-c3cc(C4CCCN4)c4cnccc4c3)cc12 (centres unmarked) [Compound Z95, 6-(3-isopropyl-1H-pyrrolo[2,3-b]pyridin-5-yl)-8-(pyrrolidin-2-yl)isoquinoline] |
| 117 | 0.32 | c1cncc(-c2c[nH]c3ncc(-c4cc5c(c([C@@H]6CCCN6)c4)COCC5)cc23)c1 [Compound Z199, (S)-3-(pyridin-3-yl)-5-(8-(pyrrolidin-2-yl)isochroman-6-yl)-1H-pyrrolo[2,3-b]pyridine] |
| 197 | 0.52 | Cc1ccc(C(=O)N2CCc3cc(-c4cnc5[nH]cc(C)c5c4)cc([C@@H]4CCCN4)c3C2)cn1 [Compound Z441, (S)-(6-(3-methyl-1H-pyrrolo[2,3-b]pyridin-5-yl)-8-(pyrrolidin-2-yl)-3,4-dihydroisoquinolin-2(1H)-yl) (6-methylpyridin-3-yl)methanone] |
| 119 | 0.58 | Cc1c[nH]c2ncc(-c3cc4c(c([C@@H]5CCCN5)c3)CN(CC3(O)CCOCC3)CC4)cc12 [Compound Z437] |
| 159 | 0.37 | N#CC1(c2c[nH]c3ncc(-c4cc5c(c([C@@H]6CCCN6)c4)COCC5)cc23)CC1 [Compound Z137, (S)-1-(5-(8-(pyrrolidin-2-yl)isochroman-6-yl)-1H-pyrrolo[2,3-b]pyridin-3-yl)cyclopropane-1-carbonitrile] |
| 318 | 0.64 | Cc1cc(C(=O)N2CCc3cc(-c4cnc5[nH]cc(C)c5c4)cc([C@@H]4CCCN4)c3C2)ccn1 [Compound Z213, (S)-(6-(3-methyl-1H-pyrrolo[2,3-b]pyridin-5-yl)-8-(pyrrolidin-2-yl)-3,4-dihydroisoquinolin-2(1H)-yl) (2-methylpyridin-4-yl)methanone] |
| 227 | 0.62 | Cc1c[nH]c2ncc(-c3cc4c(c([C@@H]5CCCN5)c3)CN(C(=O)c3cccnc3)CC4)cc12 [Compound Z210, (S)-1-(6-(3-methyl-1H-pyrrolo[2,3-b]pyridin-5-yl)-8-(pyrrolidin-2-yl)-3,4-dihydroisoquinolin-2(1H)-yl)(pyridin-3-yl)methanone] |
| 462 | 3.19 | Cc1c[nH]c2ncc(-c3cc4c(c([C@@H]5CCCN5)c3)CCN(C3CCOCC3)C4)cc12 [Compound Z401, (S)-7-(3-methyl-1H-pyrrolo[2,3-b]pyridin-5-yl)-5-(pyrrolidin-2-yl)-2-(tetrahydro-2H-pyran-4-yl)-1,2,3,4-tetrahydroisoquinoline] |
| 1000 | 4.13 | FC(F)(F)c1c[nH]c2ncc(-c3cc(C4CCCN4)c4cnccc4c3)cc12 (centres unmarked) [Compound Z96, 6-(3-(trifluoromethyl)-1H-pyrrolo[2,3-b]pyridin-5-yl)-8-(pyrrolidin-2-yl)isoquinoline] |
